From US20230146455A1, “TREATMENT OF INFLAMMATORY DISEASES WITH PEPTIDES AND PHARMACEUTICAL COMPOSITIONS” (Yuyu Pharma, Inc., priority 2020, published 2023)
Values joined by “and” are separate entries in the source; they are usually repeats but may differ in a detail not shown here. Identical values can stand only once. Where a SMILES comes first, the peptide text is derived from it. [ ]: non-standard residue; d: D form. Hyp = O=C(O)[C@@H]1C[C@@H](O)CN1

Test system: human PBMCs
Assay: PBMC cell counts (total, live, viability; trypan blue, Countess) with and without LPS and test articles (Example 9)
Assay type: cell-based
Experimental: Treatment Human PBMCs were pretreated with YY-101, YDE-011 and YDE-043 or reference compound; Xiidra® at various concentration (ranging from 1 nM to 100 uM) for 2 h before stimulation. An equal volume of 0.5% DMSO was used as a vehicle control. Then, the cells were treated with LPS at 5 ug/ml. The supernatants from treated cells were harvested at 24 h and placed in a 96 well for Luminex cytokine & chemokine profiling using a Luminex 200 multiplex assay (Luminex; R&D system, USA).
The main study arm with triplicate wells per group in a 24-well plate: • 1. Blank • 2. PBMC: 0.5% DMSO • 3. PBMC+LPS (5 ug/ml) • 4. PBMC+YY-101 100 uM • 5. PBMC+YY-101 10 uM • 6. PBMC+YY-101 1 uM • 7. PBMC+YY-101 0.1 uM • 8. PBMC+YY-101 0.01 uM • 9. PBMC+LPS (5 ug/ml)+Xiidra®100 uM • 10. PBMC+LPS (5 ug/ml)+Xiidra® 10 uM • 11. PBMC+LPS (5 ug/ml)+Xiidra® 1 uM • 12. PBMC+LPS (5 ug/ml)+Xiidra®0.1 uM • 13. PBMC+LPS (5 ug/ml)+Xiidra®0.01 uM • 14. PBMC+LPS (5 ug/ml)+Xiidra®0.001 uM • 15. PBMC+LPS (5 ug/ml)+YY-101 100 uM • 16. PBMC+LPS (5 ug/ml)+YY-101 10 uM • 17. PBMC+LPS (5 ug/ml)+YY-101 1 uM • 18. PBMC+LPS (5 ug/ml)+YY-101 0.1 uM • 19. PBMC+LPS (5 ug/ml)+YY-101 0.01 uM • 20. PBMC+LPS (5 ug/ml)+YY-101 0.001 uM • 21. PBMC+LPS (5 ug/ml)+YDE-011 100 uM • 22. PBMC+LPS (5 ug/ml)+YDE-011 10 uM • 23. PBMC+LPS (5 ug/ml)+YDE-011 1 uM • 24. PBMC+LPS (5 ug/ml)+YDE-011 0.1 uM • 25. PBMC+LPS (5 ug/ml)+YDE-011 0.01 uM • 26. PBMC+LPS (5 ug/ml)+YDE-011 0.001 uM • 27. PBMC+LPS (5 ug/ml)+YDE-043 100 uM • 28. PBMC+LPS (5 ug/ml)+YDE-043 10 uM • 29. PBMC+LPS (5 ug/ml)+YDE-043 1 uM • 30. PBMC+LPS (5 ug/ml)+YDE-043 0.1 uM • 31. PBMC+LPS (5 ug/ml)+YDE-043 0.01 uM • 32. PBMC+LPS (5 ug/ml)+YDE-043 0.001 uM
The number of PBMCs was measured after 24 hr of treatment. The culture both and trypan blue were diluted 1:1 and 10 ul was added to Countess cell counting chamber (Thermo fisher, USA). The number of PBMCs was measured using a Countess automated cell counter (Thermo fisher, USA).

[1] = PBMC + LPS(5 ug/ml) + test article 100 uM, Mean
[2] = PBMC + LPS(5 ug/ml) + test article 100 uM, single replicates
[3] = PBMC + LPS(5 ug/ml), test article 0.001 uM, Mean
[4] = PBMC + LPS(5 ug/ml), test article 0.001 uM, single replicates
[5] = PBMC + LPS(5 ug/ml), test article 0.01 uM, Mean
[6] = PBMC + LPS(5 ug/ml), test article 0.01 uM, single replicates
[7] = PBMC + LPS(5 ug/ml), test article 0.1 uM, Mean
[8] = PBMC + LPS(5 ug/ml), test article 0.1 uM, single replicates
[9] = PBMC + LPS(5 ug/ml), test article 1 uM, Mean
[10] = PBMC + LPS(5 ug/ml), test article 1 uM, single replicates
[11] = PBMC + LPS(5 ug/ml), test article 10 uM, Mean
[12] = PBMC + LPS(5 ug/ml), test article 10 uM, single replicates
[13] = PBMC + LPS(5 ug/ml), test article 100 uM, Mean
[14] = PBMC + LPS(5 ug/ml), test article 100 uM, single replicates

In the case of CC(C)C[C@H](NC(=O)[C@H](CCC(N)=O)NC(=O)CNC(=O)[C@@H]1C[C@@H](O)CN1)C(=O)NCC(=O)O [YDE-043] (H-[Hyp]GQLG-OH; N-terminus and C-terminus assumed), the Live cell (PBMC + LPS(5 ug/ml) + test article 10 uM, single replicates (1st, 2nd, 3rd)) is reported as 5.2 10^5/ml and 5.4 10^5/ml and 5.6 10^5/ml, the Live cell [1] is reported as 6.3 10^5/ml and the “Live cell (10^5/ml)” value [1] is reported as 6.3 10^5/ml. The “Live cell, Mean” value [1] was 6.3 10^5/ml, the Live cell (PBMC + LPS(5 ug/ml) + test article 100 uM, individual replicates) was 6.2 10^5/ml and 6.4 10^5/ml and the Live cell (PBMC + LPS(5 ug/ml) + test article 100 uM, individual replicates (1st, 2nd, 3rd)) was 6.2 10^5/ml and 6.4 10^5/ml. The Live cell [2] was 6.2 10^5/ml and 6.4 10^5/ml, the “Live cell (10^5/ml)” value [2] was 6.2 10^5/ml and 6.4 10^5/ml and the Live cell (PBMC + LPS(5 ug/ml) + test article 100 uM, single replicates (1st, 2nd, 3rd)) was 6.2 10^5/ml and 6.4 10^5/ml. The Live cell (PBMC + LPS(5 ug/ml), 0.001 uM, Mean) was 5.0 10^5/ml, the Live cell (PBMC + LPS(5 ug/ml), 0.001 uM, single replicates) was 4.4 10^5/ml and 6.0 10^5/ml and 4.6 10^5/ml and the Live cell (PBMC + LPS(5 ug/ml), 0.01 uM, Mean) was 5.4 10^5/ml. The Live cell (PBMC + LPS(5 ug/ml), 0.01 uM, single replicates) was 4.5 10^5/ml and 6.6 10^5/ml and 5.0 10^5/ml, the Live cell (PBMC + LPS(5 ug/ml), 0.1 uM, Mean) was 5.4 10^5/ml and the Live cell (PBMC + LPS(5 ug/ml), 0.1 uM, single replicates) was 5.0 10^5/ml and 5.6 10^5/ml (2×). The Live cell (PBMC + LPS(5 ug/ml), 1 uM, Mean) was 5.3 10^5/ml, the Live cell (PBMC + LPS(5 ug/ml), 1 uM, single replicates) was 5.8 10^5/ml and 4.8 10^5/ml and 5.3 10^5/ml and the Live cell (PBMC + LPS(5 ug/ml), 10 uM, Mean) was 5.4 10^5/ml. The Live cell (PBMC + LPS(5 ug/ml), 10 uM, single replicates) was 5.2 10^5/ml and 5.4 10^5/ml and 5.6 10^5/ml, the Live cell (PBMC + LPS(5 ug/ml), 100 uM, Mean) was 6.3 10^5/ml and the Live cell (PBMC + LPS(5 ug/ml), 100 uM, single replicates) was 6.2 10^5/ml and 6.4 10^5/ml. For the same compound, the Live cell [3] was 5.0 10^5/ml, the Total cell count [3] was 6.3 10^5/ml and the Live cell [4] was 4.4 10^5/ml and 6.0 10^5/ml and 4.6 10^5/ml. For the same compound, the Total cell count [4] was 5.6 10^5/ml (2×) and 7.8 10^5/ml, the Viability [4] was 79.0% and 77.0% and 82.0% and the Live cell [5] was 5.4 10^5/ml. For the same compound, the Total cell count [5] was 6.9 10^5/ml, the Live cell [6] was 4.5 10^5/ml and 6.6 10^5/ml and 5.0 10^5/ml and the Total cell count [6] was 6.2 10^5/ml and 7.3 10^5/ml and 7.2 10^5/ml. For the same compound, the Live cell [7] was 5.4 10^5/ml, the Total cell count [7] was 6.6 10^5/ml and the Live cell [8] was 5.0 10^5/ml and 5.6 10^5/ml. For the same compound, the Total cell count [8] was 6.8 10^5/ml and 6.4 10^5/ml and 6.5 10^5/ml, the Viability [8] was 74.0% and 87.0% and 85.0% and the Live cell [9] was 5.3 10^5/ml. For the same compound, the Total cell count [9] was 6.8 10^5/ml, the Live cell [10] was 5.8 10^5/ml and 4.8 10^5/ml and 5.3 10^5/ml and the Total cell count [10] was 6.9 10^5/ml and 5.7 10^5/ml and 7.8 10^5/ml. The Viability [10] was 83.0% (2×) and 68.0%, the Live cell [11] was 5.4 10^5/ml and the Total cell count [11] was 6.4 10^5/ml. For the same compound, the Live cell [12] was 5.2 10^5/ml and 5.4 10^5/ml and 5.6 10^5/ml, the Total cell count [12] was 6.4 10^5/ml and 6.7 10^5/ml and 6.2 10^5/ml and the Viability [12] was 80.0% (2×) and 90.0%. For the same compound, the Live cell [13] was 6.3 10^5/ml, the Total cell count [13] was 7.6 10^5/ml and the Live cell [14] was 6.2 10^5/ml and 6.4 10^5/ml. For the same compound, the Total cell count [14] was 7.0 10^5/ml and 8.1 10^5/ml, the Viability [14] was 89.0% and 80.0% and the “which treatments consistently affected the total and live number of PBMCs or the percent viability (in words)” value (up to 100 μM, 24-hour treatment) was “none of”.
